This is an account of results in US7714146B2, “Azulene-oxindole compounds as multiple-kinase inhibitors and useful as anticancer agents” (Industrial Technology Research Institute, priority 2006, dated 2010).

SMILES strings stand for the structures.

Type in all cases: biochemical
In assay [1] the target is T1, human c-KIT (Thr544-Val976) (Homo sapiens, UniProt P10721).
T1 construct: human c-KIT (Thr544-Val976); GST (N); purchased Cell Signaling Technology; host or cells: baculovirus expression system
T1 sequence (P10721 544-976): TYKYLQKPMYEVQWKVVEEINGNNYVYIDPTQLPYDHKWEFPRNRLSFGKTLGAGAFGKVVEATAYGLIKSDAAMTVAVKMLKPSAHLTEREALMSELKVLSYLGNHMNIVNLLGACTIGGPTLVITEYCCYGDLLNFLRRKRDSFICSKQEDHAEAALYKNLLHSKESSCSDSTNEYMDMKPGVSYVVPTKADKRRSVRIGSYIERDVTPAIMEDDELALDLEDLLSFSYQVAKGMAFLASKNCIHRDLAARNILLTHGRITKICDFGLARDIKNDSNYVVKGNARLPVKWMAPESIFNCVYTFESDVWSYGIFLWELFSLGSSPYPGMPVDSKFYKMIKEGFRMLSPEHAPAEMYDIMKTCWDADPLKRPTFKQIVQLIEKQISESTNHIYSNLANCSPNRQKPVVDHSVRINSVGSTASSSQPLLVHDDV
The experiment in a line: c-KIT kinase assay (HTScan kit, DELFIA). Particulars: for inhibition at 0.1 µM: compound at 0.1 μM, read-out: c-KIT 0.1 μM, % of inhibition relative to control; for inhibition at 1 µM: compound at 1 μM, read-out: c-KIT 1 μM, % of inhibition relative to control; for IC50: read-out: c-KIT kinase inhibition (IC50). The method in brief:
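GST-tagged human c-KIT (Thr544-Val976) from baculovirus, with 1.5 μM biotinylated KDR Tyr-996 peptide and 20 μM ATP in HEPES pH 7.5 buffer containing Mg2+/Mn2+ and 1% DMSO. Enzyme and compound pre-incubated 5 min, reaction run 30 min at room temperature; phosphorylation detected by DELFIA.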

In assay [2] the target is T2, human FLT-3 (Arg571-Ser993) (Homo sapiens, UniProt P36888).
T2 construct: human FLT-3 (Arg571-Ser993); GST (N); purchased Cell Signaling Technology; host or cells: baculovirus expression system
T2 sequence (P36888 571-993): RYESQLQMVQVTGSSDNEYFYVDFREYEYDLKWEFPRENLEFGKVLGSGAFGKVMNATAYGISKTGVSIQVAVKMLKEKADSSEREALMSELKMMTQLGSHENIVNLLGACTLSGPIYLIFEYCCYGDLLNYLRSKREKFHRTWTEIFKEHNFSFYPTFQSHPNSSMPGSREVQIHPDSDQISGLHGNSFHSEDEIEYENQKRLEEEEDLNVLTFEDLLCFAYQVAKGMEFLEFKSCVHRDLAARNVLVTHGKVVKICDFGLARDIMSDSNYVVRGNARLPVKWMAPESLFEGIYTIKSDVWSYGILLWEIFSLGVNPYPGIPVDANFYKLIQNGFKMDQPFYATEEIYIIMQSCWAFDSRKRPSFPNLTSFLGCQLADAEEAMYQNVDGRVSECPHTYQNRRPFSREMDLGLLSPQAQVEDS
Nature of the assay: FLT-3 kinase assay (HTScan kit, DELFIA). Conditions: for inhibition at 0.1 µM: compound at 0.1 μM, read-out: FLT-3 0.1 μM, % of inhibition relative to control; for inhibition at 1 µM: compound at 1 μM, read-out: FLT-3 1 μM, % of inhibition relative to control; for IC50: read-out: FLT-3 kinase inhibition (IC50). The method in brief: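 GST-tagged human FLT-3 (Arg571-Ser993, baculovirus-expressed) phosphorylated 1.5 μM biotinylated gastrin precursor peptide with 20 μM ATP in HEPES pH 7.5, Mg/Mn buffer and 1% DMSO. After 5 min preincubation, the reaction ran 30 min at room temperature. Phosphorylation was read by DELFIA.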

Assay [3] addresses T3, human EGFR (His672-Ala1210) (Homo sapiens, UniProt P00533).
T3 construct: human EGFR (His672-Ala1210); GST (N); purchased Cell Signaling Technology; host or cells: baculovirus expression system
The experiment in a line: EGFR kinase assay (HTScan kit, DELFIA). Conditions: for inhibition at 0.1 µM: compound at 0.1 μM, read-out: EGFR 0.1 μM, % of inhibition relative to control; for inhibition at 1 µM: compound at 1 μM, read-out: EGFR 1 μM, % of inhibition relative to control. Here is the method: Compounds 1-100 were treated for their efficacy in inhibiting activities of FLT-3, c-KIT, KDR/Flk-1, PDGFR-beta, EGFR, and PKC kinases by biochemical DELFIA (Dissociation Enhanced Lanthanide FIA) assays according to the procedure described below. The assays were conducted by, Division of Cell Engineering, Biomedical Engineering Research Laboratories, Industrial Technology Research Institute, Bldg. 53, 195, sec. 4, Chung Hsing Rd. Chutung, Hsinchu, Taiwan 310, R.O.C.
The EGFR assay was conducted following the protocol described in Protocol for HTScan® EGFR Kinase Assay Kit (Cell Signaling Technology®). The assay was conducted under the following conditions: EGFR source: The GST-kinase fusion protein was produced using a baculovirus expression system with a construct expressing human EGFR (His672-Ala1210) (GenBank Accession No. NM_005228) with an amino-terminal GST tag, substrate: 1.5 μM This biotinylated peptide contains the residues surrounding Tyr-66 of PTP1B, vehicle: 1% DMSO, pre-incubation time/temperature: 5 minutes at room temperature, incubation time/temperature: 30 minutes at room temperature, incubation buffer: 60 mM HEPES pH 7.5, 5 mM MgCl2, 5 mM MnCl2, 3 μM Na3VO4, 1.25 mM DTT, 20 μM ATP, and quantitative method: DELFIA® Assay.

Assay [4] deals with T4, human VEGFR-2 (Val789-Val1356) (Homo sapiens, UniProt P35968).
T4 construct: human VEGFR-2 (Val789-Val1356); GST (N); purchased Cell Signaling Technology; host or cells: baculovirus expression system
T4 sequence (P35968 789-1356): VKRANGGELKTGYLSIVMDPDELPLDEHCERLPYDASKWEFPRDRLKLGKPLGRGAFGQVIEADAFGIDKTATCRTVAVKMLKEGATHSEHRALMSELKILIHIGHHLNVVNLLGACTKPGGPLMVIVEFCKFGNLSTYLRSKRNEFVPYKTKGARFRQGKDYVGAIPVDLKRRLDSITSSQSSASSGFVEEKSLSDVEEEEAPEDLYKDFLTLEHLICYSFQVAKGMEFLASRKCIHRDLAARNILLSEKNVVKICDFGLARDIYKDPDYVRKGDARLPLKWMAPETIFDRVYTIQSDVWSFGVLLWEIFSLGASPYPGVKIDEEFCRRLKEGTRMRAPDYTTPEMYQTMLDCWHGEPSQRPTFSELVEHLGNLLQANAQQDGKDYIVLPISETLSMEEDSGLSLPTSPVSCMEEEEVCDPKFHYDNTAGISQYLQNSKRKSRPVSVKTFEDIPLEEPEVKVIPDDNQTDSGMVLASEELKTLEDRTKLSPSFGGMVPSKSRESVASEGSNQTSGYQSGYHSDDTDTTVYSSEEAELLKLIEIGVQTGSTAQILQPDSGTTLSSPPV
Nature of the assay: KDR kinase assay (HTScan VEGFR-2 kit, DELFIA). Particulars: for inhibition at 0.1 µM: compound at 0.1 μM, read-out: KDR 0.1 μM, % of inhibition relative to control; for inhibition at 1 µM: compound at 1 μM, read-out: KDR 1 μM, % of inhibition relative to control. A digest of the protocol: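 GST-tagged human VEGFR-2 (Val789-Val1356) from baculovirus, with 1.5 μM biotinylated gastrin precursor peptide and 20 μM ATP in HEPES pH 7.5, Mg/Mn, vanadate, DTT, 1% DMSO. Pre-incubation 5 min, reaction 30 min at room temperature; phosphorylation read by DELFIA.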

T3 sequence (P00533 672-1210): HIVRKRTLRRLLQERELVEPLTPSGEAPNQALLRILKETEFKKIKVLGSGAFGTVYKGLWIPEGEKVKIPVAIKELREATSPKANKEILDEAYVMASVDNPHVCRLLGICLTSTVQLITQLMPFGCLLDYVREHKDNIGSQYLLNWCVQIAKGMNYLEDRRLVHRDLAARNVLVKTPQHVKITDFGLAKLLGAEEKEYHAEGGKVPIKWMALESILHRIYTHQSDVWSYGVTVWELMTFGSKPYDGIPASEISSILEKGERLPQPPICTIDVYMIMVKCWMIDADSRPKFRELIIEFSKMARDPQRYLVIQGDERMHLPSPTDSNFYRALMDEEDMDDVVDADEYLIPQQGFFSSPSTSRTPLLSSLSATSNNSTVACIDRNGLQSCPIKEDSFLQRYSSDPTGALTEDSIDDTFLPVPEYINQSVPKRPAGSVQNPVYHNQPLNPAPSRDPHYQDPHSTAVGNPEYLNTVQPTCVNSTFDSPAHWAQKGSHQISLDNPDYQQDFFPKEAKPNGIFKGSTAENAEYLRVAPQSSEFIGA

By inhibition is commonly meant how much of the control response was suppressed. In the case of `O=C1Nc2ccccc2/C1=C/c1cc2cccccc-2c1` [Compound 33, 3-Azulen-2-ylmethylene-1,3-dihydro-indol-2-one], the inhibition at 0.1 µM was 63.1% in assay [1], 50.5% in assay [2], 15.2% in assay [3] and 24.6% in assay [4]. For the same compound, the inhibition at 1 µM in assay [1] came to 63.1%; in assay [2], 85.6%; in assay [3], 13%; in assay [4] it was 50.8%.
Consider `O=C1Nc2c(Cl)cccc2/C1=C/c1ccc2cccccc1-2` [Compound 42, 3-Azulen-1-ylmethylene-7-chloro-1,3-dihydro-indol-2-one], for which the inhibition at 0.1 µM worked out at 8.3% in assay [1], 8.9% in assay [2], 8.8% in assay [3] and 6% in assay [4]. The inhibition at 1 µM came to 8.3% in assay [1], 24.3% in assay [2], 10.8% in assay [3] and 13.6% in assay [4].
As to `Cc1ccc2c(c1)/C(=C/c1ccc3cccccc1-3)C(=O)N2` [Compound 48, 3-Azulen-1-ylmethylene-5-methyl-1,3-dihydro-indol-2-one], the inhibition at 0.1 µM came to 32.2% in assay [1], 4.5% in assay [2] and 7.8% in assay [3]. Moreover, the inhibition at 1 µM in assay [1] came to 32.2%; in assay [2], 61.6%; in assay [3], 10.4%; in assay [4] it was 13.8%.
Regarding `Cc1ccc2c(c1)/C(=C\c1ccc3cccccc1-3)C(=O)N2` [Compound 47, 3-Azulen-1-ylmethylene-5-methyl-1,3-dihydro-indol-2-one], the inhibition at 0.1 µM turned out to be 30.7% in assay [1], 0.5% in assay [2], 8.3% in assay [3] and 7.8% in assay [4]. Besides, the inhibition at 1 µM came out at 30.7% in assay [1], 48.6% in assay [2], 14.6% in assay [3] and 34% in assay [4].
What is called IC50 is the concentration at which inhibition is half-maximal. Regarding `O=C1Nc2ccc(F)cc2/C1=C/c1cc2cccccc-2c1` [Compound 41, 3-Azulen-2-ylmethylene-5-fluoro-1,3-dihydro-indol-2-one], the inhibition at 0.1 µM turned out to be 76.6% in assay [1], 74.7% in assay [2], 6.4% in assay [3] and 25.2% in assay [4]. The inhibition at 1 µM came out at 76.6% in assay [1], 87.6% in assay [2], 9.4% in assay [3] and 30.4% in assay [4]. Moreover, the results for the IC50 in assay [1] and in assay [2] were 0.006 µM and 0.0434 µM, respectively.
For `Cc1cc(/C=C2\C(=O)Nc3ccc(F)cc32)c2cccccc1-2` [Compound 39, 5-Fluoro-3-(3-methyl-azulen-1-ylmethylene)-1,3-dihydro-indol-2-one], the inhibition at 0.1 µM in assay [1] turned out to be 80.1%; in assay [2] it was 45.6%; in assay [3], 6.1%. Besides, the inhibition at 1 µM in assay [1] came to 80.1%; in assay [2], 93.2%; in assay [3], 14.1%; in assay [4], 20.2%. Moreover, the results for the IC50 in assay [1], in assay [2] and in assay [4] (read-out: KDR kinase inhibition (IC50)) were 0.129 µM, 0.491 µM and 6.38 µM, respectively.
Consider `COc1ccc2c(c1)/C(=C\c1ccc3cccccc1-3)C(=O)N2` [Compound 43, 3-Azulen-1-ylmethylene-5-methoxy-1,3-dihydro-indol-2-one], for which the inhibition at 0.1 µM in assay [1] worked out at 14.7%; in assay [3], 6.2%. In addition, the inhibition at 1 µM in assay [1] turned out to be 14.7%; in assay [2] it was 24.3%; in assay [3] it was 11.9%; in assay [4], 6.8%.
On to `Cc1cc(C=C2C(=O)Nc3ccccc32)c2cccccc1-2` [Compound 37, 3-(3-Methyl-azulen-1-ylmethylene)-1,3-dihydro-indol-2-one], for which the inhibition at 0.1 µM worked out at 53.2% in assay [1], 5.9% in assay [2] and 2.9% in assay [3]. In addition, the inhibition at 1 µM in assay [1] came to 53.2%; in assay [2], 61.5%; in assay [3], 13.6%; in assay [4], 27.6%.
Take `O=C1Nc2ccc(F)cc2/C1=C\c1cc2cccccc-2c1` [Compound 40, 3-Azulen-2-ylmethylene-5-fluoro-1,3-dihydro-indol-2-one]: the inhibition at 0.1 µM in assay [1] was 80%; in assay [2] it was 84.3%; in assay [3], 10%; in assay [4] it was 13.8%. Also, the inhibition at 1 µM is 80% in assay [1], 95.5% in assay [2], 17.3% in assay [3] and 22.2% in assay [4].
`Cc1cc(/C=C2/C(=O)Nc3ccccc32)c2cccccc1-2` [Compound 36, 3-(3-Methyl-azulen-1-ylmethylene)-1,3-dihydro-indol-2-one]: the results for the inhibition at 0.1 µM in assay [1] and in assay [3] were 49.2% and 9.6%, respectively. Also, the inhibition at 1 µM came to 49.2% in assay [1], 39.3% in assay [2], 10.9% in assay [3] and 0.3% in assay [4].
For `COc1ccc2c(c1)/C(=C/c1ccc3cccccc1-3)C(=O)N2` [Compound 44, 3-Azulen-1-ylmethylene-5-methoxy-1,3-dihydro-indol-2-one], the inhibition at 0.1 µM in assay [1] worked out at 7.2%; in assay [2], 5.7%; in assay [3] it was 4.7%. The inhibition at 1 µM in assay [1] worked out at 7.2%; in assay [2] it was 8.2%; in assay [3] it was 9.3%; in assay [4] it was 38.4%.
As to `O=C1Nc2ccc(F)cc2/C1=C/c1cc(Br)c2cccccc1-2` [Compound 45, 3-(3-Bromo-azulen-1-ylmethylene)-5-fluoro-1,3-dihydro-indol-2-one], the inhibition at 0.1 µM in assay [1] was found to be 73.9%; in assay [2] it was 51.4%; in assay [3], 2.5%; in assay [4], 32.8%. Besides, the inhibition at 1 µM amounted to 73.9% in assay [1], 69.7% in assay [2] and 41.9% in assay [4].
